Experimental data reported in PubChem BioAssay AID1117285 (Broad Institute, 2014).
Inconclusive results are not listed. Active and inactive are the calls of the source.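 The calls were made as follows: active = called active in every replicate test, with a falling signal and AC50 within twice the top valid dose; inconclusive = replicate tests disagree in their calls; inactive = inactive in every replicate test, including a rising signal.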

Biological target: Leucyl-cystinyl aminopeptidase (Mus musculus) (UniProt Q8C129)
Sequence (Q8C129 whole entry, looked up): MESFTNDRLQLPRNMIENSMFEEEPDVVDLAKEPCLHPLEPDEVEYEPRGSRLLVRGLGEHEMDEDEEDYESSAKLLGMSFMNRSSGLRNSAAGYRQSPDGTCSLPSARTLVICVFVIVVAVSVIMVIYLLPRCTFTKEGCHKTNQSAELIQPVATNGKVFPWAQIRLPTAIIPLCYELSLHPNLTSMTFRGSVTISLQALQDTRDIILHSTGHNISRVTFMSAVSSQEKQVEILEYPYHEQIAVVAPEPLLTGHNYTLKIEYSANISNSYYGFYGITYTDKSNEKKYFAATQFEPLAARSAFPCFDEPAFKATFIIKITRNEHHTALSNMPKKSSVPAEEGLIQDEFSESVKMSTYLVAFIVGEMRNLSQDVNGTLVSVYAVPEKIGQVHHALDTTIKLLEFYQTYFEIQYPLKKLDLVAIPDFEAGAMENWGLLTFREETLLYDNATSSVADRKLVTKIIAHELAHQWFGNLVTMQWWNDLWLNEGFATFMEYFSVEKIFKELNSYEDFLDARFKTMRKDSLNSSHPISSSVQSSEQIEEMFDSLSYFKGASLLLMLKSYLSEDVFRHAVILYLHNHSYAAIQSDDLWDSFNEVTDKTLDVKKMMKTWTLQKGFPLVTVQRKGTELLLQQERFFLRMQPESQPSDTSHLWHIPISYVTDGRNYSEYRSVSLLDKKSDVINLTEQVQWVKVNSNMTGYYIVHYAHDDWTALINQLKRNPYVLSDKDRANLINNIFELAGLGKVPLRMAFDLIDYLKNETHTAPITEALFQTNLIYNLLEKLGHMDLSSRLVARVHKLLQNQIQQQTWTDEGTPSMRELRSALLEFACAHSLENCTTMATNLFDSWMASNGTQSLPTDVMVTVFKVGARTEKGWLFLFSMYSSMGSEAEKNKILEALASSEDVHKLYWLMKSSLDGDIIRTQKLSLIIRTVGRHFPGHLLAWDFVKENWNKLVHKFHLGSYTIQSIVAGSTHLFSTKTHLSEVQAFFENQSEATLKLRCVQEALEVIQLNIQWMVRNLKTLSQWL
Experiment: inhibition of mouse IRAP Leu-AMC hydrolysis – biochemical, dry powder samples, set 2, selectivity assay for ERAP1 modulator project, dose response (AID 1117285)
Conditions: purified IRAP, Leu-AMC hydrolysis fluorescence, 1 h

| SMILES | AC50 |
| --- | --- |
| CC(=O)N1CCN(C(=O)[C@@H]2CCN2C(=O)Nc2ccc(C)cc2)CC1 | > 100 µM (inactive) |
| COC(=O)[C@H](CCCCN)NC(=O)c1ccc(N)c(NC(=O)[C@@H](N)CCc2ccccc2)c1 | > 100 µM (inactive) |

Same assay, conditions: purified IRAP, Leu-AMC hydrolysis fluorescence, 1 h; at 0.1 µM; lower = more inhibition

| SMILES | max activity % (lower = more inhibition) |
| --- | --- |
| CC(=O)N1CCN(C(=O)C2(NC(=O)NC(C)(C)C)CCCCC2)CC1 | inactive |
| COc1ccc(C(=O)Nc2cc(C(F)(F)F)ccc2N2CCOCC2)cc1S(=O)(=O)O | inactive |
| CC(=O)N1CCN(C(=O)C2(NC(=O)Nc3ccc(C)cc3)CCCCC2)CC1 | inactive |
| CC(=O)N1CCN(C(=O)C2(NC(=O)Nc3ccc(Cl)cc3)CCCCC2)CC1 | inactive |
| CC(=O)N1CCN(C(=O)C2(NC(=O)Nc3ccc(C(F)(F)F)cc3)CCCC2)CC1 | inactive |
| Cc1ccc(NC(=O)NC2(C(=O)N3CCOCC3)CCCCC2)cc1 | inactive |
| CC(=O)N1CCN(C(=O)CNC(=O)Nc2ccc(C)cc2)CC1 | inactive |

Same assay, conditions: purified IRAP, Leu-AMC hydrolysis fluorescence, 1 h; at 0.195 µM; lower = more inhibition

| SMILES | max activity % (lower = more inhibition) |
| --- | --- |
| O=S(=O)(Nc1cc(C(F)(F)F)ccc1N1CCCCC1)c1ccc(F)cc1 | inactive |
| CC(=O)N1CCN(C(=O)C2CCCN2C(=O)Nc2ccc(C)cc2)CC1 (stereo not given) | inactive |
| COc1ccc(S(=O)(=O)Nc2cc(C(F)(F)F)ccc2N2CCCCC2)cc1 | inactive |
| NC(=NCCc1c[nH]c2ccccc12)NS(=O)(=O)c1cc(F)ccc1F | inactive |
| O=[N+]([O-])c1cccc(S(=O)(=O)Nc2cc(C(F)(F)F)ccc2N2CCCCC2)c1 | inactive |
| CC(=O)N1CCN(C(=O)C2(NC(=O)Nc3ccc(C(F)(F)F)cc3)CCCCC2)CC1 | inactive |
| CC(=O)N1CCN(C(=O)C2(NC(=O)Nc3ccc(C(C)C)cc3)CCCC2)CC1 | inactive |
| CC(=O)N1CCN(C(=O)C2(NC(=O)Nc3ccccc3C(F)(F)F)CCCCC2)CC1 | inactive |
| CC(=O)N1CCN(C(=O)C2(NC(=O)Nc3ccccc3)CCCC2)CC1 | inactive |
| CC(=O)N1CCN(C(=O)C2(NC(=O)Nc3cccc(F)c3)CCCCC2)CC1 | inactive |
| Cc1ccccc1S(=O)(=O)Nc1cc(C(F)(F)F)ccc1N1CCCCC1 | inactive |
| O=S(=O)(Nc1cc(C(F)(F)F)ccc1N1CCCCC1)c1ccccc1 | inactive |
| COc1ccc(C(=O)Nc2cc(C(F)(F)F)ccc2N2CCCC2)cc1S(=O)(=O)O | inactive |

Same assay, conditions: purified IRAP, Leu-AMC hydrolysis fluorescence, 1 h; at 0.38 µM; lower = more inhibition

| SMILES | max activity % (lower = more inhibition) |
| --- | --- |
| CC(=O)N1CCN(C(=O)C2(NC(=O)Nc3ccc(C(C)C)cc3)CCCCC2)CC1 | inactive |
| CC(=O)N1CCN(C(=O)C2(NC(=O)Nc3cccc(C(F)(F)F)c3)CCCCC2)CC1 | inactive |
| O=S(=O)(Nc1cc(C(F)(F)F)ccc1N1CCCCC1)c1cc(Cl)cc(Cl)c1 | inactive |
| Cc1ccc(NC(=O)NC2(C(=O)N3CCN(c4ccccc4)CC3)CCCCC2)cc1 | inactive |

Same assay, conditions: purified IRAP, Leu-AMC hydrolysis fluorescence, 1 h; at 0.8 µM; lower = more inhibition

| SMILES | max activity % (lower = more inhibition) |
| --- | --- |
| N#Cc1ccc(S(=O)(=O)Nc2cc(C(F)(F)F)ccc2N2CCCCC2)cc1 | inactive |
| CC(=O)N1CCN(C(=O)C2(NC(=O)Nc3ccccc3F)CCCCC2)CC1 | inactive |
| Cn1cnc(S(=O)(=O)Nc2cc(C(F)(F)F)ccc2N2CCCCC2)c1 | inactive |
| O=S(=O)(Nc1cc(C(F)(F)F)ccc1N1CCCCC1)c1ccc(Cl)cc1 | inactive |
| O=[N+]([O-])c1ccc(S(=O)(=O)Nc2cc(C(F)(F)F)ccc2N2CCCCC2)c([N+](=O)[O-])c1 | inactive |

Same assay, conditions: purified IRAP, Leu-AMC hydrolysis fluorescence, 1 h; at 3 µM; lower = more inhibition

| SMILES | max activity % (lower = more inhibition) |
| --- | --- |
| O=S(=O)(Nc1cc(C(F)(F)F)ccc1N1CCCCC1)c1ccc(Br)cc1 | inactive |
| CC(=O)N1CCN(C(=O)C2(NC(=O)Nc3ccc(F)cc3)CCCC2)CC1 | inactive |
| O=S(=O)(Nc1cc(C(F)(F)F)ccc1N1CCCCC1)c1ccc(-c2ccccc2)cc1 | inactive |
| O=S(=O)(Nc1cc(C(F)(F)F)ccc1N1CCCCC1)c1ccc(C(F)(F)F)cc1 | inactive |

Same assay, conditions: purified IRAP, Leu-AMC hydrolysis fluorescence, 1 h; at 12 µM; lower = more inhibition

| SMILES | max activity % (lower = more inhibition) |
| --- | --- |
| COc1ccc(NC(=O)NC2(C(=O)N3CCN(C(C)=O)CC3)CCCCC2)cc1 | inactive |
| COc1cccc(NC(=O)NC2(C(=O)N3CCN(C(C)=O)CC3)CCCCC2)c1 | inactive |

Same assay, conditions: purified IRAP, Leu-AMC hydrolysis fluorescence, 1 h; at 50 µM; lower = more inhibition

| SMILES | max activity % (lower = more inhibition) |
| --- | --- |
| COc1ccc(C(=O)Nc2cc(F)ccc2N2CCCCC2)cc1S(=O)(=O)O | inactive |
| CC(=O)N1CCN(C(=O)C2(NC(=O)Nc3ccccc3)CCCCC2)CC1 | inactive |
| COc1ccc(C(=O)Nc2cc(C)ccc2N2CCCCC2)cc1S(=O)(=O)O | inactive |
| COc1ccc(C(=O)Nc2cc(C(F)(F)F)ccc2N2CCCCC2)cc1S(=O)(=O)O | inactive |
| CC(=O)N1CCN(C(=O)C2(NC(=O)NCCc3ccccc3)CCCCC2)CC1 | inactive |
| COc1ccc(C(=O)Nc2cccc(C(F)(F)F)c2)cc1S(=O)(=O)O | inactive |
| COc1ccc(C(=O)Nc2ccccc2N2CCCCC2)cc1S(=O)(=O)O | inactive |
| CC(=O)N1CCN(C(=O)C(C)(C)NC(=O)Nc2ccc(C)cc2)CC1 | inactive |
| CC(=O)N1CCN(C(=O)C2(NC(=O)Nc3ccccc3F)CCCCC2)CC1 | inactive |
| O=C(Nc1cc(C(F)(F)F)ccc1N1CCCCC1)c1ccc(S(=O)(=O)O)cc1 | inactive |
| CC(=O)N1CCN(C(=O)C2(NC(=O)Nc3ccc(F)cc3)CCCCC2)CC1 | inactive |

Same assay, conditions: purified IRAP, Leu-AMC hydrolysis fluorescence, 1 h; lower = more inhibition

| SMILES | max activity % (lower = more inhibition) |
| --- | --- |
| COC(=O)c1ccc(OC)c(S(=O)(=O)Nc2cc(C(F)(F)F)ccc2N2CCCCC2)c1 | inactive |
| COc1ccc(C(=O)O)cc1S(=O)(=O)Nc1cc(C(F)(F)F)ccc1N1CCCCC1 | inactive |
| COc1ccc(C(=O)O)cc1S(=O)(=O)Nc1cc(C(F)(F)F)ccc1N(C)C | inactive |
| COc1ccc(C(=O)O)cc1S(=O)(=O)Nc1ccccc1N1CCCCC1 | inactive |
| COc1ccc(C(=O)O)cc1S(=O)(=O)Nc1cc(C(F)(F)F)ccc1N1CCOCC1 | inactive |
| COc1ccc(C(=O)O)cc1S(=O)(=O)Nc1cc(C)ccc1N1CCCCC1 | inactive |
| COc1ccc(C(=O)O)cc1S(=O)(=O)Nc1cc(F)ccc1N1CCCCC1 | inactive |
